According to patent US11051515B2, “3-acyl-benzamides and their use as herbicides” (Bayer Aktiengesellschaft, priority 2017, dated 2021):

How the values were obtained:
SETVI [1] = assay: Pre-emergence action against SETVI; format: in vivo, Setaria viridis; conditions: pre-emergence, dosage 320 g/ha, scored visually after 3 weeks vs untreated controls
Outline: (§1)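 Seeds sown in sandy loam in wood-fiber pots and covered with soil. Greenhouse growth; visual damage scored after 3 weeks versus untreated controls (100% = dead, 0% = like control).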

ECHCG [2] = assay: Pre-emergence action against ECHCG; format: in vivo, Echinochloa crus-galli; conditions: pre-emergence, dosage 320 g/ha, scored visually after 3 weeks vs untreated controls
Outline: as §1

VERPE [3] = assay: Pre-emergence action against VERPE; format: in vivo, Veronica persica; conditions: Dosage 320 g/ha, pre-emergence
Outline: as §1

MATIN [4] = assay: Post-emergence action against MATIN; format: in vivo, Matricaria inodora; conditions: post-emergence, dosage 80 g/ha, visual assessment about 3 weeks after treatment vs untreated controls
Outline: (§2)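 Weeds grown in sandy loam in greenhouse, treated at one-leaf stage (2–3 weeks after sowing) with WP or EC formulations sprayed as aqueous suspension/emulsion at 600 to […] water with 0.2% wetting agent. Visual rating after about 3 weeks versus untreated controls, as % herbicidal action (100% = plants dead, 0% = like control).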

AMARE [5] = assay: Post-emergence action against AMARE; format: in vivo, Amaranthus retroflexus; conditions: post-emergence, dosage 80 g/ha, visual assessment about 3 weeks after treatment vs untreated controls
Outline: as §2

AMARE [6] = assay: Pre-emergence action against AMARE; format: in vivo, Amaranthus retroflexus; conditions: pre-emergence, dosage 320 g/ha, scored visually after 3 weeks vs untreated controls
Outline: as §1

ALOMY [7] = assay: Pre-emergence action against ALOMY; format: in vivo, Alopecurus myosuroides; conditions: dosage 320 g/ha, pre-emergence, scored visually after 3 weeks vs untreated controls, 100% = plants have died, 0% = like control plants
Outline: as §1

ALOMY [8] = assay: Post-emergence action against ALOMY; format: in vivo, Alopecurus myosuroides; conditions: Dosage 80 g/ha, post-emergence
Procedure: (§3) Seeds of monocotyledonous and dicotyledonous weed and crop plants are laid out in sandy loam soil in wood-fiber pots, covered with soil and cultivated in a greenhouse under good growth conditions. 2 to 3 weeks after sowing, the test plants are treated at the one-leaf stage. The compounds of the invention, formulated in the form of wettable powders (WP) or as emulsion concentrates (EC), are then sprayed onto the green parts of the plants in the form of an aqueous suspension or emulsion at a water application rate equating to […], with addition of 0.2% wetting agent. After the test plants have been left to stand in the greenhouse under optimal growth conditions for about 3 weeks, the action of the preparations is assessed visually in comparison to untreated controls (herbicidal action in percent (%): 100% activity=the plants have died, 0% activity=like control plants). […] At the same time, inventive compounds leave Gramineae crops such as barley, wheat, rye, millet/Sorghum, corn or rice virtually undamaged when applied post-emergence, even at high active ingredient dosages. In addition, some substances are also harmless to dicotyledonous crops such as soya, cotton, oilseed rape, sugar beet or potatoes. Some of the compounds according to the invention have high selectivity and are therefore suitable for controlling unwanted vegetation in agricultural crops by the post-emergence method. The data of Tables B18 to B34 below illustrate, in an exemplary manner, the […] herbicidal action of the compounds according to the invention, the herbicidal activity being stated in percent.

AVEFA [9] = assay: Pre-emergence action against AVEFA; format: in vivo, Avena fatua; conditions: dosage 320 g/ha, scored visually after 3 weeks vs untreated controls
Outline: as §1

VERPE [10] = assay: Post-emergence action against VERPE; format: in vivo, Veronica persica; conditions: dosage 80 g/ha
Outline: as §2

VIOTR [11] = assay: Pre-emergence action against VIOTR; format: in vivo, Viola tricolor; conditions: Dosage 320 g/ha, pre-emergence
Outline: as §1

ABUTH [12] = assay: Pre-emergence action against ABUTH; format: in vivo, Abutilon theophrasti; conditions: pre-emergence, dosage 320 g/ha, scored visually after 3 weeks vs untreated controls
Outline: as §1

ECHCG [13] = assay: Post-emergence action against ECHCG; format: in vivo, Echinochloa crus-galli; conditions: post-emergence, dosage 80 g/ha, visual assessment about 3 weeks after treatment vs untreated controls
Outline: as §2

MATIN [14] = assay: Pre-emergence action against MATIN; format: in vivo, Matricaria inodora; conditions: Dosage 320 g/ha, pre-emergence
Outline: as §1

PHBPU = assay: Post-emergence action against PHBPU; format: in vivo, Pharbitis purpurea; conditions: post-emergence, dosage 80 g/ha
Outline: as §2

SETVI [15] = assay: Post-emergence action against SETVI; format: in vivo, Setaria viridis; conditions: post-emergence, dosage 80 g/ha, visual assessment about 3 weeks after treatment vs untreated controls
Outline: as §2

AVEFA [16] = assay: Post-emergence action against AVEFA; format: in vivo, Avena fatua; conditions: post-emergence, dosage 80 g/ha, visual assessment about 3 weeks after treatment vs untreated controls
Procedure: as §3

ABUTH [17] = assay: Post-emergence action against ABUTH; format: in vivo, Abutilon theophrasti; conditions: post-emergence, dosage 80 g/ha, visual assessment about 3 weeks after treatment vs untreated controls
Outline: as §2

STEME [18] = assay: Post-emergence action against STEME; format: in vivo, Stellaria media; conditions: post-emergence, dosage 80 g/ha
Outline: as §2

VIOTR [19] = assay: Post-emergence action against VIOTR; format: in vivo, Viola tricolor; conditions: post-emergence, dosage 80 g/ha
Outline: as §2

STEME [20] = assay: Pre-emergence action against STEME; format: in vivo, Stellaria media; conditions: Dosage 320 g/ha, pre-emergence
Outline: as §1

CYPES = assay: Post-emergence action against CYPES; format: in vivo, Cyperus esculentus; conditions: post-emergence, dosage 80 g/ha, visual assessment about 3 weeks after treatment vs untreated controls
Outline: as §2

POLCO = assay: Pre-emergence action against POLCO; format: in vivo, Polygonum convolvulus; conditions: Dosage 320 g/ha, pre-emergence
Outline: as §1

CSc1ccc(C(=O)Nc2nnnn2C)c(Cl)c1C(=O)C1CC1 [1-123]
80%: pest or weed control at 80 g/ha (ALOMY [8]; Alopecurus myosuroides, 504 h) | pest or weed control at 320 g/ha (AVEFA [9]; Avena fatua, 504 h, read-out: Pre-emergence action against AVEFA (herbicidal activity))
100%: pest or weed control at 320 g/ha (SETVI [1]; Setaria viridis, 504 h, read-out: SETVI (Table B8, pre-emergence herbicidal activity)) | pest or weed control at 320 g/ha (ECHCG [2]; Echinochloa crus-galli, 504 h, read-out: Pre-emergence action against ECHCG (herbicidal activity)) | pest or weed control at 320 g/ha (VERPE [3]; Veronica persica, 504 h) | pest or weed control at 80 g/ha (MATIN [4]; Tripleurospermum inodorum, 504 h, read-out: Post-emergence action against MATIN (herbicidal action in percent)) | pest or weed control at 80 g/ha (AMARE [5]; Amaranthus retroflexus, 504 h, read-out: Post-emergence action against AMARE (herbicidal action in percent)) | pest or weed control at 320 g/ha (AMARE [6]; Amaranthus retroflexus, 504 h, read-out: Pre-emergence action against AMARE (herbicidal activity)) | pest or weed control at 80 g/ha (VERPE [10]; Veronica persica, 504 h) | pest or weed control at 320 g/ha (VIOTR [11]; Viola tricolor, 504 h) | pest or weed control at 80 g/ha (ECHCG [13]; Echinochloa crus-galli, 504 h, read-out: Post-emergence action against ECHCG (herbicidal action in percent)) | pest or weed control at 320 g/ha (MATIN [14]; Tripleurospermum inodorum, 504 h) | pest or weed control at 80 g/ha (SETVI [15]; Setaria viridis, 504 h, read-out: Post-emergence action against SETVI (herbicidal action in percent)) | pest or weed control at 80 g/ha (AVEFA [16]; Avena fatua, 504 h, read-out: Post-emergence action against AVEFA (herbicidal action in percent)) | pest or weed control at 80 g/ha (ABUTH [17]; Abutilon theophrasti, 504 h, read-out: Post-emergence action against ABUTH (herbicidal action in percent)) | pest or weed control at 80 g/ha (STEME [18]; Stellaria media, 504 h) | pest or weed control at 80 g/ha (VIOTR [19]; Viola tricolor, 504 h)
90%: pest or weed control at 320 g/ha (ALOMY [7]; Alopecurus myosuroides, 504 h, read-out: Pre-emergence action against ALOMY (herbicidal activity in percent)) | pest or weed control at 320 g/ha (ABUTH [12]; Abutilon theophrasti, 504 h, read-out: Pre-emergence action against ABUTH (herbicidal activity)) | pest or weed control at 80 g/ha (PHBPU; Ipomoea purpurea, 504 h) | pest or weed control at 320 g/ha (STEME [20]; Stellaria media, 504 h)

CCCn1nnnc1NC(=O)c1ccc(C(F)(F)F)c(C(=O)C2CC2)c1Cl [3-141]
90%: Pre-emergence action against ALOMY (herbicidal activity in percent) (ALOMY [7]) | Pre-emergence action against POLCO (POLCO)
80%: Post-emergence action against CYPES (herbicidal action in percent) (CYPES) | Post-emergence action against ALOMY (ALOMY [8]) | Pre-emergence action against AVEFA (herbicidal activity) (AVEFA [9]) | Post-emergence action against ABUTH (herbicidal action in percent) (ABUTH [17])
100%: SETVI (Table B8, pre-emergence herbicidal activity) (SETVI [1]) | Pre-emergence action against ECHCG (herbicidal activity) (ECHCG [2]) | Pre-emergence action against VERPE (VERPE [3]) | Post-emergence action against MATIN (herbicidal action in percent) (MATIN [4]) | Post-emergence action against AMARE (herbicidal action in percent) (AMARE [5]) | Pre-emergence action against AMARE (herbicidal activity) (AMARE [6]) | Pre-emergence action against VIOTR (VIOTR [11]) | Pre-emergence action against ABUTH (herbicidal activity) (ABUTH [12]) | Post-emergence action against ECHCG (herbicidal action in percent) (ECHCG [13]) | Pre-emergence action against MATIN (MATIN [14]) | Post-emergence action against SETVI (herbicidal action in percent) (SETVI [15]) | Post-emergence action against AVEFA (herbicidal action in percent) (AVEFA [16]) | Pre-emergence action against STEME (STEME [20])
100: Post-emergence action against VERPE (VERPE [10]) | Post-emergence action against PHBPU (PHBPU) | Post-emergence action against STEME (STEME [18]) | Post-emergence action against VIOTR (VIOTR [19])
